We go through one molecule from patent publication US20190153051A1, “FUSION PROTEIN OF C2 DOMAIN AND AKT KINASE DOMAIN FRAGMENT AND USE THEREOF” (Gachon University of Industry-Academic Cooperation …, priority 2017, published 2019).

In one assay the test system is Akt protein. The assay can be described thus: Western blotting of Akt protein phosphorylation in insulin-treated HepG2 cells. Format: cell-based, human. To be noted: HepG2, PA 24 hours, 100 nM insulin; compared with insulin alone. The procedure: First, male C57BL/6 mice at 8 weeks were divided into the fasted group wherein the mice were fasted for 16 hours and the refed group wherein the mice were fasted for 16 hours and then fed for 4 hours. Each group was sub-divided into the high fat diet group (HFD) and the normal diet group (chow). The liver cells were extracted from the raised mice by the same manner and under the same conditions as described in Example 1. The extracted liver cells were lysed in a lysis buffer containing phosphatase (Sigma-Aldrich, USA) and protease inhibitor (Sigma-Aldrich, USA). Proteins extracted from 2 to 3 mg of the liver tissue were homogenized by using a tissue homogenizer (TissuLyser, Qiagen, USA) for 1.5 minutes at a frequency of 1/30 sec. The homogenized lysate was centrifuged at 12,000 rpm for 15 minutes and the supernatant was obtained. The amount of the extracted protein was quantified by using a protein assay kit (Bio-Rad Laboratories, USA), and at this time BSA was used as a standard sample. 3 mg of the protein was mixed with 6× loading buffer, followed by electrophoresis using 10% SDS-PAGE gel. The electrophoresed protein was transferred onto a polyvinylidene fluoride (PVDF) membrane by using a transfer buffer at 4° C. with 120 V for 1.5 hours. The PVDF membrane on which the protein was transferred was pretreated with a blocking buffer prepared by mixing 5% skim milk with TBS buffer (TBS-T, pH 7.6) supplemented with Tween 20 for 30 minutes, and the membrane was washed with TBS-T. The washed membrane was added with the antibody against Akt (Cell Signaling Technology, USA), Akt(T308) (Cell Signaling Technology, USA), Akt(S473) (Cell Signaling Technology, USA), FOXO3A (Cell Signaling Technology, USA), FOXO3A(S253) (Cell Signaling Technology, USA), GSK-3β (Cell Signaling Technology, USA) or GSK-3β(S9) (Cell Signaling Technology, USA) protein as a primary antibody, followed by reaction at 4° C. for 12 hours. At this time, the antibody against actin (Santa Cruz Biotechnology, USA) protein was used for the control group. Upon completion of the reaction, the secondary antibody corresponding to the primary antibody was added thereto, followed by reaction at room temperature for 30 minutes. The PVDF membrane was washed with TBS-T buffer three times. The washed PVDF membrane was added with ECL solution (Thermo Scientific, USA), followed by image observation.
To investigate the changes in insulin sensitivity when insulin was added to the fatty liver cell model constructed in vitro, the phosphorylations of those proteins that were involved in insulin signaling mechanism were examined. PA was added to the human HepG2 cells prepared in Example 3, followed by reaction for 24 hours. […]
For orientation: A western blot detects proteins with antibodies after separation by electrophoresis.

The test system of assay [1] is human HepG2 cells. The assay is described as follows: Intracellular calcium dynamics with Fura-2 AM in insulin resistance induced cells. The assay is classed as cell-based. On the procedure:
First, human HepG2 cells were cultured in DMEM (Dulbecco's Modified Eagle Medium) supplemented with 10% fetal bovine serum (FBS), 25 mM glucose, 2 mM L-glutamine, 100 U/Ml of penicillin and 100 μg/Ml of streptomycin. At this time, the culture was performed in a 37° C., 5% CO2 incubator. The cultured cells were distributed in a culture plate at the density of 5.0×10^5 cells/well, followed by further culture for overnight. Palmitic acid (PA) was added to the plate at the concentration of 0, 100, 300 or 500 μM, followed by reaction for 24 hours. Then, the concentration of calcium was investigated by using Fluo-3 AM according to the same conditions and procedures as described in Example 1, and the results are shown in FIG. 2A and FIG. 2B. Intracellular calcium dynamics was confirmed in the fatty liver cell model constructed in vitro by inducing insulin resistance. At this time, the experiment was performed by the same manner under the same conditions as described in Example 3 except that Fura-2 AM was used instead of Fluo-3 AM.
(In general: Calcium flux is commonly read through the fluorescence of an indicator in the cells.)

Assay [2] has as its system human HepG2 cells. The assay is described as follows: Intracellular calcium level with Fluo-3 AM in PA-treated HepG2 cells. The assay is classed as cell-based. To be noted: PA 0, 100, 300 or 500 μM, 24 hours. The procedure:
First, male C57BL/6 mice at 8 weeks (Orient Bio, Korea) were raised in an animal facility of Lee Gil Ya Cancer and Diabetes Institute (Gachon University, Korea). Particularly, the mice were raised in a sterile chamber at the temperature of 23±1° C., with 12 hr/12 hr light/dark cycle, and free dietary environment. At this time, the mice were divided into the fasted group wherein the mice were fasted for 16 hours and the refed group wherein the mice were fasted for 16 hours and then fed for 4 hours. Each group was sub-divided into the high fat diet group (HFD) and the normal diet group (chow). The high fat diet group (HFD) mice were fed with diet containing 60% fat, while the normal diet group (chow) mice were fed with diet containing 10% fat. 8 weeks later, the mice were anesthetized and the liver was perfused by using buffer 1 (142 mM NaCl, 6.7 mM KCl, 10 mM HEPES and 2.5 mM EGTA, pH 7.4). Buffer 1 above was replaced with buffer 2 (0.5 mg/Me collagen, 66.7 mM NaCl, 6.7 mM KCl, 10 mM HEPES and 4.8 mM CaCl, pH 7.6), and then the perfused liver was extracted. The extracted liver was washed and degraded by using Percoll cushion gradient. The degraded cells were suspended and cultured in Hepatozyme-SFM (Gibco-BRL, USA) culture medium supplemented with 10% FBS and 1% antibiotics and antifungal agent. […] The mounted cells were analyzed using a fluorescence microscope (Zeiss Axioplan 2). […]

As for `CCCCCCCCCCCCCCCC(=O)O` [PA, Palmitic acid], the Akt protein phosphorylation result with Akt protein is “significantly inhibited”. For the same molecule, in the assay on human HepG2 cells [1], the intracellular calcium concentration result is on record as “significantly increased”. The “concentration of calcium in the cytoplasm” value in the assay on human HepG2 cells [2] is given as “increased”.
